Assay results as given in US7834053B2, “Medicinal compositions improving brain function and method for improving brain function” (priority 2002, dated 2010).
Where “and” joins values, the source holds several entries; their conditions need not be identical. Equal entries are not always repeated.

Columns and labels:
nerve growth factor = conditions: WO96/12717; cited from earlier work
[1] = reported in the literature; cited from earlier work
[2] = Society for Neuroscience Abstracts 21, 947, 1995; cited from earlier work
[3] = tested on: neuronal death caused by amyloid-beta-protein; conditions: Society for Neuroscience Abstracts 24, Part 1, 228, 1998; cited from earlier work
ddY male mice = test: Anti-hypoxic activity: survival time of mice in 4% oxygen / 96% nitrogen after oral administration; type: in vivo
Method: Test compounds A1, A2, A3, B1 and B2 were put to use after dissolution in distilled water. Test compounds C1 and C2 were put to use after suspending them in 0.5% solution of methylcellulose.
The test was carried out according to the method described in Japanese Journal of Pharmacology, Vol. 62, Page 81, 1993.
To one group (6-10 animals) of ddY male mice having an age of 4-5 weeks was orally administered a test compound dissolved in distilled water or suspended in 0.5% methyl cellulose solution. Thirty minutes after the administration, the mice were introduced into a glass container at a volume of 300 mL, and a gaseous mixture composed of 4% of oxygen and 96% of nitrogen was passed though the glass container at a flow rate of 5 L/minute. The period of time from the start of passing the gaseous mixture to the death of the mice was measured. To the control group, distilled water was administered orally.

in-brain acetylcholine = conditions: Society for Neuroscience Abstracts 21, 947, 1995; cited from earlier work
[4] = 10 mg/kg oral, alone, survival time vs control x100, 30 min after administration
[5] = Compound (1) 10 mg/kg oral in combination with Compound B1 (Donepezil) 3 mg/kg
[6] = Compound (1) 10 mg/kg oral in combination with Compound B2 (Tacrine) 10 mg/kg
[7] = 100 mg/kg oral, alone, survival time vs control x100

In the case of `CCN(CC)CCOC[C@H](O)c1ccc2sccc2c1.Cl` [Compound A1, (R)-1-{benzo[b]thiophen-5-yl}-2-[2-(N,N-diethylamino}ethoxy]ethanol hydrochloride], the “effect on the action of nerve growth factor” value (nerve growth factor) is listed as “exhibits an increasing effect”, the anti-hypoxic activity [1] is listed as “has an anti-hypoxic activity” and the anti-amnestic activity [2] is listed as “an anti-amnestic activity”. For the same molecule, the “protecting effect on the neuronal death caused by amyloid-beta-protein” value [3] was “exhibits a protecting effect”, the “Anti-hypoxic activity (%)” value (ddY male mice; [4]) was 137% and the “Anti-hypoxic activity (%)” value (ddY male mice; [5]) was 211%. For the same molecule, the “Anti-hypoxic activity (%)” value (ddY male mice; [6]) was 172% and the “release of in-brain acetylcholine” value (in-brain acetylcholine) was “promotes the release of in-brain acetylcholine”.
In the case of `CN(CCO)CCCOCCc1ccc2sccc2c1.CN(CCO)CCCOCCc1ccc2sccc2c1.O=C(O)/C=C/C(=O)O` [Compound A2, 2-[[3-(2-benzo[b]thiophen-5-yl-ethoxy)propyl](methyl)amino]-1-ethanol.1/2fumarate], the “Anti-hypoxic activity (%)” value (ddY male mice; [4]) was 114%, the “Anti-hypoxic activity (%)” value (ddY male mice; [5]) was 168% and the “Anti-hypoxic activity (%)” value (ddY male mice; [6]) was 172%.
With `O=C(O)/C=C\C(=O)O.OC1CN(CCCOCCc2ccc3sccc3c2)C1` [Compound A3, 1-[3-(2-(1-benzothiophen-5-yl)ethoxy]-propyl]-3-azetidinol-maleate] the “Anti-hypoxic activity (%)” value (ddY male mice; [4]) was 111%, the “Anti-hypoxic activity (%)” value (ddY male mice; [5]) was 190% and the “Anti-hypoxic activity (%)” value (ddY male mice; [6]) was 149%.
In the case of `COc1cc2c(cc1OC)C(=O)C(CC1CCN(Cc3ccccc3)CC1)C2` (centres unmarked) [Compound B1, Donepezil], the “Anti-hypoxic activity (%)” value (ddY male mice; 3 mg/kg oral, alone, survival time vs control x100) was 119% and 104%.
For `Cl.Nc1c2c(nc3ccccc13)CCCC2` [Compound B2, 1,2,3,4-tetrahydro-9-acridinamine hydrochloride], the anti-hypoxic activity [1] is given as “anti-hypoxic activity is shown” and the “Anti-hypoxic activity (%)” value (ddY male mice; 10 mg/kg oral, alone, survival time vs control x100, 30 min after administration, hydrochloride) is given as 127% and 107%.
In the case of `COC1=C(OC)C(=O)C(CCCCCCCCCCO)=C(C)C1=O` [Compound C1, Idebenone], the “Anti-hypoxic activity (%)” value (ddY male mice; [7]) was 104%, the “Anti-hypoxic activity (%)” value (ddY male mice; 300 mg/kg oral, alone, survival time vs control x100) was 108% and the “Anti-hypoxic activity (%)” value (ddY male mice; Compound (1) 300 mg/kg oral in combination with Compound B1 (Donepezil) 3 mg/kg) was 100%.
With `Cl.FC(F)(F)c1cccc(C2=CCN(CCc3ccc4ccccc4c3)CC2)c1` [Compound C2, SR57746A] the “Anti-hypoxic activity (%)” value (ddY male mice; 30 mg/kg oral, alone, survival time vs control x100) was 100%, the “Anti-hypoxic activity (%)” value (ddY male mice; [7]) was 123% and the “Anti-hypoxic activity (%)” value (ddY male mice; Compound (1) 100 mg/kg oral in combination with Compound B1 (Donepezil) 3 mg/kg) was 111%.
